Laboratory results from patent US11014915B2, “Selective estrogen receptor degrader” (SUN PHARMA ADVANCED RESEARCH COMPANY LIMITED, priority 2019, dated 2021).

Legend:
[1] = target: T1, ER-α in MCF-7 cells harboring ER wild type (Homo sapiens, UniProt P03372); assay: ER-α degradation (SERD) assay, MCF-7 wild type; format: cell-based; conditions: MCF-7 Wt, 1 nM; for % of ER-α remaining at 1 nM: 4 days, western blot, vehicle control as 100%
T1 construct: evaluated in MCF-7 cells harboring ER wild type; endogenous in cells; host or cells: MCF-7
T1 sequence (P03372 1-595): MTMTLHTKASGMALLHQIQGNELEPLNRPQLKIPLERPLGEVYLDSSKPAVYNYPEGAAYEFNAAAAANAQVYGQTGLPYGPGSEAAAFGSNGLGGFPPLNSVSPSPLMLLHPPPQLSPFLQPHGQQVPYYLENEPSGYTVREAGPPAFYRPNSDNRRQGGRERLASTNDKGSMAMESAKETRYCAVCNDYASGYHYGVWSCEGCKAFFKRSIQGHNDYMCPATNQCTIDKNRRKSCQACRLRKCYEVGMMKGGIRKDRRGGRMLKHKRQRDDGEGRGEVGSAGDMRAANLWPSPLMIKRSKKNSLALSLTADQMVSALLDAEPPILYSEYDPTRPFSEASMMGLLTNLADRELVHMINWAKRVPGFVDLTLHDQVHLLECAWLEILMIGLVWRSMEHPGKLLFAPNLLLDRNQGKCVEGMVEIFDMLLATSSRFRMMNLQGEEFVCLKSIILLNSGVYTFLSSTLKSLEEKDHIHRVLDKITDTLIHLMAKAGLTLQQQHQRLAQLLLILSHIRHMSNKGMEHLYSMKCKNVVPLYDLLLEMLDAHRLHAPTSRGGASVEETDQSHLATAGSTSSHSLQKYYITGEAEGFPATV
Experimental: Selective Estrogen Receptor Degradation (SERD) Assay:
The SERD activity for the test compounds was evaluated in MCF-7 cells harboring ER wild type, and MCF-7 cells harboring mutant ER (WT/D538G and WT/Y537S). Briefly, cells were plated in phenol red free RPMI1640 medium supplemented with 5% charcoal stripped fetal bovine serum. The seeding density was 40000 cells/well for MCF-7 WT and MCF-7 D538G and 50000 cells/well MCF-7 Y537S in a 48-well plate. Following overnight incubation, the cells were treated with varying concentrations of test compounds (final concentration: 1000 nM to 0.01 nM, 0.1% DMSO) for 4 days. The cells were lysed using PBS supplemented with 1 mM EDTA, 0.5% Triton X-100, 5 mM NaF, 6 M urea, and 1× Protease inhibitor cocktail. The lysate was analyzed for ER alpha protein using western blot. For the western blot, the cell lysate (12.5-40 μg total protein) was resolved on a 10% SDS PAGE and transferred onto a PVDF membrane. The blots were blocked using 5% skim milk powder in 0.1% PBS-T for 1 hour at room temperature, followed by co-incubation with rabbit anti-human β-actin antibody and rabbit anti-human ERα antibody for 2 hours at room temperature. The blots were subsequently probed with anti-rabbit IgG-HRP conjugate as secondary antibody for 1 hour at room temperature. The blots were developed by using West Pico Super Signal Chemiluminescence substrate and the bands were processed for densitometry analysis using Image Lab software (BioRad version 6.0.0). ERα band intensity was normalized to that housekeeping protein for respective samples. The % ER remaining was calculated by normalizing against the vehicle control (as 100%).

[2] = system: subcutaneous MCF7-Y537S xenografts; assay: In-vivo efficacy in MCF7-Y537S mice xenografts; parameters: species or system female athymic nude mice; conditions: for % Tumor growth inhibition compared to vehicle group after 28 days: p.o., once daily
Experimental: In-Vivo Efficacy of Compound of Formula I and Compound of Formula Ia: […]
The efficacy of the compound of Formula I and the compound of Formula Ia were evaluated in female athymic nude mice harboring subcutaneous MCF7-Y537S xenografts. Dose formulations of the compound of Formula I and the compound of Formula Ia were prepared in Tween 80 (0.4% v/v of the total volume of suspension) in 0.5% w/v carboxymethylcellulose (CMC) and administered once daily orally for 28 days. Two perpendicular diameters of tumor were measured with digital Vernier caliper. Tumor volume (V) was calculated using the following equation: V=(a^2×b)/2, where “a” is the width of the tumor (small diameter), and “b” the length (large diameter), both in millimeters. Tumors were monitored twice weekly and compared with a vehicle treated group.

## CC1=C(c2cc(F)cc(F)c2)C(c2ccc(/C=C/CN3CC(CF)C3)cc2)Oc2ccc(O)cc21 (racemic) [Compound 2, 3-(3,5-difluorophenyl)-2-[4-[(E)-3-[3-(fluoromethyl)azetidin-1-yl]prop-1-enyl]phenyl]-4-methyl-2H-chromen-6-ol]
[1]
  SERD activity (in words): complete loss of the SERD activity
  % of ER-α remaining at 1 nM: 100%

## CC1=C(c2cc(F)cc(F)c2)C(c2ccc(/C=C/CN3CCC(CF)CC3)cc2)Oc2cc(O)ccc21 (racemic) [Compound 3, 3-(3,5-difluorophenyl)-2-{4-[(E)-3-(4-fluoromethylpiperidin-1-yl)propenyl]phenyl}-4-methyl-2H-chromen-7-ol]
[1]
  SERD activity (in words): negligible SERD activity

## CC1=C(c2cc(F)cc(F)c2)C(c2ccc(/C=C/CN3CC[C@@H](CF)C3)cc2)Oc2cc(O)ccc21 (mixture of isomers) [Compound 4, 3-(3,5-difluorophenyl)-2-[4-[(E)-3-[(3R)-3-(fluoromethyl)pyrrolidin-1-yl]prop-1-enyl]phenyl]-4-methyl-2H-chromen-7-ol]
[1]
  SERD activity (in words): negligible SERD activity

## CC1=C(c2cc(F)cc(F)c2)C(c2ccc(/C=C/CN3CC[C@@H](C)C3)cc2)Oc2cc(O)ccc21 (mixture of isomers) [Compound 5, 3-(3,5-difluorophenyl)-4-methyl-2-[4-[(E)-3-[(3R)-3-methylpyrrolidin-1-yl]prop-1-enyl]phenyl]-2H-chromen-7-ol]
[1]
  SERD activity (in words): negligible SERD activity

## CC1=C(c2cc(F)cc(F)c2)C(c2ccc(/C=C\CN3CC(CF)C3)cc2)Oc2cc(O)ccc21 (racemic) [Compound 6, 3-(3,5-difluorophenyl)-2-{4-[(Z)-3-(3-fluoromethylazetidin-1-yl)propenyl]phenyl}-4-methyl-2H-chromen-7-ol]
[1]
  SERD activity (in words): very negligible SERD activity
  % of ER-α remaining at 1 nM: 80.8%

## CC1=C(c2cc(F)cc(F)c2)C(c2ccc(C#CCN3CC(CF)C3)cc2)Oc2cc(O)ccc21 (racemic) [Compound 7, 3-(3,5-difluorophenyl)-2-[4-[3-[3-(fluoromethyl)azetidin-1-yl]prop-1-ynyl]phenyl]-4-methyl-2H-chromen-7-ol]
[1]
  SERD activity (in words): complete loss of SERD activity
  % of ER-α remaining at 1 nM: 100%

## CC1=C(c2cc(F)cc(F)c2)C(c2ccc(/C=C/CN3CC(CF)C3)cc2)Oc2cc(O)ccc21 (racemic) [Formula I, 3-(3,5-difluorophenyl)-2-[4-[(E)-3-[3-(fluoromethyl)azetidin-1-yl]prop-1-enyl]phenyl]-4-methyl-2H-chromen-7-ol]
[2]; 50 mg/kg
  % Tumor growth inhibition compared to vehicle group after 28 days: 46%
[2]; 100 mg/kg
  % Tumor growth inhibition compared to vehicle group after 28 days: 57%
[2]; once daily orally for 28 days
  Tumor growth compared to the vehicle group (in words): significant reduction in the tumor growth
